Key:
Assay type in all cases: biochemical
[1] = biological target: T1, α-N-acetylgalactosaminidase (from chicken liver) (Gallus gallus, UniProt Q90744); assay: α-N-acetylgalactosaminidase inhibition (Test Example 1); conditions: for IC50: α-N-acetylgalactosaminidase from chicken liver, substrate p-nitrophenyl-N-acetyl-α-D-galactosaminide, pH 4.0, 37° C., 30 minutes, read-out: 50% inhibiory concentration (IC50) Enzyme A (converted)
T1 construct: originated from chicken liver (a product of Sigma Company); purchased Sigma Company; host or cells: chicken liver
T1 sequence (Q90744 1-405): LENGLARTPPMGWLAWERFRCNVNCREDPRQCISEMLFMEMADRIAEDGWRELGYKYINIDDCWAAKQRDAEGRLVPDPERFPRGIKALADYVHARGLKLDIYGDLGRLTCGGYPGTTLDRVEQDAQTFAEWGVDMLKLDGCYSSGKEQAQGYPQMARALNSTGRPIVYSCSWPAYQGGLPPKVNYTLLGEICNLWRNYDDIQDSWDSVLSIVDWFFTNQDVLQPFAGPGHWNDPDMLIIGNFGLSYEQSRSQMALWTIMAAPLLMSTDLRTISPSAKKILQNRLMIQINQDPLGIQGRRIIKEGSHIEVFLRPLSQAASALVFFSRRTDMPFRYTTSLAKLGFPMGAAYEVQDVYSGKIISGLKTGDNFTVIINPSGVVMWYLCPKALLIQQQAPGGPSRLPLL
Protocol: This Test Example is a test example for determining the N-acetylgalactosaminidase-inhibitory activity of the compound of the formula (I), (V) or (X) according to this invention.
Assay of the N-acetylgalactosaminidase-inhibitory activity was conducted according to a modification of the method described in the “Journal of Biological Chemistry”, 252, pp.5194-5200(1977).
(§1) Thus, 0.5 mL of 0.025M citrate-phosphate buffer (pH 4.0), 0.1 mL of the same buffer containing 10 mM p-nitro-phenyl-N-acetyl-α-D-galactosaminide dissolved therein, and 0.1 mL of either water or an aqueous solution containing as the test compound any one of the compounds of the formulae (I), (V) and (X) according to this invention were mixed with each other and pre-incubated in a 96-wells titer plate at 37° C. for 10 minutes. After the completion of the pre-incubation, to the pre-incubated mixture was added 0.01 mL of 0.025 M citrate-phosphate buffer containing α-N-acetyl-galactosaminidase originated from chicken liver (a product of Sigma Company) which was dissolved in said buffer as a glycosidase to be tested. Thereafter, the enzymatic reaction was conducted at 37° C. for 30 minutes.
(§2) After the enzymatic reaction, to the reaction solution was added 1.0 mL of 0.3M glycine—sodium hydroxide buffer (pH 10.5), in order to terminate the enzymatic reaction. Thereafter, the absorbance [designated as value (a)] of light at 405 nm of the resulting reaction solution was measured. Concurrently, measurement was made of the absorbance [designated as value (b)] at 405 nm of the reaction solution as obtained in the control test where the enzymatic reaction was conducted without addition of the test compound. Further, measurements were made of the absorbance [designated as values (a′)] and the absorbance [[designated as values (b′)] at 405 nm of the solutions as obtained in the blank test and the control test, respectively, where the enzymatic reaction was not conducted in the assay test. The rate of inhibition to […] was calculated by the equation: [1-(a-a′)/(b-b′)]×100.
(§3) The test results obtained are summarized as IC50 value in Table 1 below.

[2] = test system: β-N-acetylglucosaminidase (from bovine epididymis); assay: β-N-acetylglucosaminidase inhibition (Test Example 2); conditions: for inhibition of N-acetylglucosaminidase, in words: summary of Table 1; for 50% inhibiory concentration (IC50) Enzyme B: β-N-acetylglucosaminidase from bovine epididymis, substrate p-nitrophenyl-N-acetyl-β-D-glucosaminide
Protocol: as §1, §2, §3
This Test Example is a test example for determining the N-acetylglucosaminidase-inhibitory activity of the compound of the formula (I), (V) or (X) according to this invention.
The evaluation of the N-acetylglucosaminidase-inhibitory activity was conducted according to a modification of the method described in the “Methods in Enzymology”, 28, p.772 (1972).
Namely, the test was conducted in the same manner as the test for the N-acetylgalactosamnidase-inhibitory activity as described above, but with using […] (a product of Sigma Company) originated from bovine epididymis, as the glycosidase enzyme to be tested, and with using p-nitrophenyl-N-acetyl-β-D-glucosaminide as the substrate. Furthermore, absorbances of light at 405 nm were measured in the same manner as described in […]. IC50 value of the test compound capable of giving the 50% inhibition to β-N-acetyl-glucosaminidase was calculated.

[3] = test system: α-D-galactosidase (from Aspergillus niger); assay: α-galactosidase inhibition (Test Example 3); conditions: for 50% inhibiory concentration (IC50) Enzyme C: α-D-galactosidase from Aspergillus niger, substrate p-nitrophenyl-α-D-galactoside
Protocol: as §1, §2, §3
This Test Example is a test example for determining the α-galactosidase or β-galactosidase-inhibitory activity of the compound of the formula (I), (V) or (X) according to this invention.
The evaluation of the α-galactosidase or β-galactosidase-inhibitory activity was conducted according to a modification of the method described in the “Journal of Biological Chemistry”, 240, p.2468 (1965).
Namely, the test was conducted in the same manner as the test for the enzyme-inhibitory activity described in Test Example 1, but with using α-galactosidase or β-galactosidase (products of by Sigma Company) originated from Aspergillus niger, as the glycosidase enzyme, and with using p-nitrophenyl-α-D-galactoside and p-nitrophenyl-β-D-galactoside as the substrate. Furthermore, absorbances of light at 405 nm were measured in the same manner as in Test Example 1. IC50 values of the test compound capable of giving the 50% inhibition to the enzymes were calculated.

[4] = test system: β-D-glucosidase (from almond); assay: β-glucosidase inhibition (Test Example 4); conditions: for inhibition of β-D-glucosidase, in words: summary of Table 1; for 50% inhibiory concentration (IC50) Enzyme E: β-D-glucosidase from almond, substrate p-nitrophenyl-β-D-glucoside
Protocol: as §1, §2, §3
This Test Example is a test example for determining the α-glucosidase or β-glucosidase-inhibitory activity of the compound of the formula (I), (V) or (X) according to this invention.
The evaluation of the β-glucosidase-inhibitory activity was conducted according to a modification of the method described in the “Agricultural and Biological Chemistry”, 26, p.203 (1962).
Namely, the test was conducted in the same manner as the test for the enzyme-inhibitory activity described in Test Example 1, but with using α-glucosidase originated from yeast or β-glucosidase originated from almond (both enzymes are products of Sigma Company) as the glycosidase enzyme, and with using p-nitro-phenyl-α-D-glucoside or p-nitrophenyl-β-D-glucoside as the substrate. Furthermore, absorbances of light were measured in the same manner as in Test Example 1, and IC50 values of the test compound capable of giving the 50% inhibition to the enzyme were calculated.

[5] = test system: β-D-mannosidase (from snail); assay: β-mannosidase inhibition (Test Example 5); conditions: for inhibition of β-D-mannosidase, in words: summary of Table 1; for 50% inhibiory concentration (IC50) Enzyme F: β-D-mannosidase from snail, substrate p-nitrophenyl-β-D-mannoside, sodium acetate buffer pH 4.5
Protocol: as §1, §2, §3
This Test Example is a test example for determining the α-mannosidase or β-mannosidase-inhibitory activity of the compounds according to this invention.
The evaluation of the β-mannosidase-inhibitory activity was conducted according to a modification of the method described in the “Journal of Biological Chemistry”, 242, p.5474 (1967).
Namely, the test was conducted in the same manner as the test for the enzyme-inhibitory activity test described in Test Example 1, but with using α-mannosidase from jack bean or β-mannosidase from snail (both enzymes are products of Sigma Company) as the glycosidase enzyme, with using 0.05 M sodium acetate—acetate buffer (pH 4.5) as the buffer, and with using p-nitrophenyl-α-D-mannoside or p-nitrophenyl-β-D-mannoside as the substrate. Furthermore, absorbances of light were measured in the same manner as in Test Example 1. IC50 values of the test compound capable of giving the 50% inhibition to the enzymes were calculated.

Compound: O=C(N[C@H]1NC[C@H](CO)[C@H](O)[C@@H]1O)C(F)(F)F [Formula (I), 6-deacetamido-3-decarboxy-3-hydroxymethyl-6-trifluoroacetamido-siastain B]
- inhibition of N-acetyl-galactosaminidase, in words ([1]; summary of Table 1): inhibit strongly
- IC50 [1]: 2.52 µM
- inhibition of N-acetylglucosaminidase, in words [2]: inhibit strongly
- 50% inhibiory concentration (IC50) Enzyme B [2]: 22 µg/mL
- inhibition of α-D-galactosidase, in words ([3]; summary of Table 1): inhibit strongly
- 50% inhibiory concentration (IC50) Enzyme C [3]: 0.1 µg/mL
- inhibition of β-D-glucosidase, in words [4]: inhibit strongly
- 50% inhibiory concentration (IC50) Enzyme E [4]: 0.14 µg/mL
- inhibition of β-D-mannosidase, in words [5]: inhibit strongly
- 50% inhibiory concentration (IC50) Enzyme F [5]: 38 µg/mL

Compound: CC(=O)NC1NCC(CO)C(O)C1O (stereo not drawn) [Formula (V), 3-decarboxy-4-epi-3-hydroxymethyl-siastain B]
- IC50 [1]: > 490 µM
- inhibition of N-acetylglucosaminidase, in words [2]: inhibit strongly
- 50% inhibiory concentration (IC50) Enzyme B [2]: 3 µg/mL
- 50% inhibiory concentration (IC50) Enzyme C [3]: >100 µg/mL
- inhibition of β-D-glucosidase, in words [4]: inhibit strongly
- 50% inhibiory concentration (IC50) Enzyme E [4]: 1.4 µg/mL
- inhibition of β-D-mannosidase, in words [5]: inhibit strongly
- 50% inhibiory concentration (IC50) Enzyme F [5]: 10 µg/mL

Compound: O=C(N[C@H]1NC[C@H](CO)[C@@H](O)[C@@H]1O)C(F)(F)F [Formula (X), 6-deacetamido-3-decarboxy-4-epi-3-hydroxymethyl-6-trifluoroacetamido-siastain B]
- IC50 [1]: > 387 µM
- 50% inhibiory concentration (IC50) Enzyme B [2]: >100 µg/mL
- 50% inhibiory concentration (IC50) Enzyme C [3]: >100 µg/mL
- inhibition of β-D-glucosidase, in words [4]: inhibit strongly
- 50% inhibiory concentration (IC50) Enzyme E [4]: 0.13 µg/mL
- inhibition of β-D-mannosidase, in words [5]: inhibit strongly
- 50% inhibiory concentration (IC50) Enzyme F [5]: 1 µg/mL

From patent US6852735B1, “Siastatin B derivatives having a glycosidase inhibitory activity and processes for producing the same” (Zaidan Hojin Biseibutsu Kagaku Kenkyu Kai, priority 1998, dated 2005)
